Results as given in patent publication US20240368163A1, “COMPOUNDS AND METHODS FOR MODULATING SPLICING” (REMIX THERAPEUTICS INC., priority 2021, published 2024).

Tests used:
Type in all cases: cell-based, human
[1] = system: HTT; assay: Splicing RT-qPCR assay, HTT mRNA canonical junction (CJ) and alternative junction (AJ); settings: Homo sapiens; for AC50: increase in AJ mRNA
Outline: (§1)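 Splice switching is measured in A673 or K562 cells after 24 h compound exposure (maximum 10 uM, 3-fold steps). Canonical and alternative junction mRNA levels are quantified by RT-qPCR relative to housekeeper and DMSO.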

[2] = system: MYB; assay: Splicing RT-qPCR assay, MYB mRNA canonical junction (CJ) and alternative junction (AJ); settings: Homo sapiens; for AC50: increase in AJ mRNA
Outline: as §1

[3] = system: SMN2; assay: Splicing RT-qPCR panel, SMN2 canonical junction (CJ) mRNA; settings: Homo sapiens, RT-qPCR panel, canonical junction mRNA; compound concentration having 50% response in CJ decrease; read-out: SMN2 IC50 (decrease in CJ mRNA levels)
Outline: as §1

[4] = system: Target C; assay: Splicing RT-qPCR panel, Target C canonical junction (CJ) mRNA; settings: Homo sapiens, RT-qPCR panel, canonical junction mRNA; compound concentration having 50% response in CJ decrease; read-out: Target C IC50 (decrease in CJ mRNA levels)
Outline: as §1

[5] = system: MYB; assay: HiBiT protein abundance assay, MYB; settings: Homo sapiens, K562, 24 h, Table 13A, modified K562 cells
Outline: (§2)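 Protein abundance measured by Nano-Glo HiBiT lytic luminescence after 24 h compound exposure of modified K562 lines, 10000 cells/well, top final dose 10 μM in 3-fold steps. Four-parameter fit of control-normalised response gives concentration reducing abundance to 50% of untreated.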

[6] = system: HTT; assay: HiBiT protein abundance assay, HTT; settings: Homo sapiens, K562, 24 h, Table 13A, modified K562 cells
Outline: as §2

[7] = system: Target C; assay: HiBiT protein abundance assay, Target C; settings: Homo sapiens, K562, 24 h, Table 13A, modified K562 cells
Outline: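 Target protein levels in engineered HiBiT-tagged cells were read by lytic luminescence after 24 h compound exposure (10000 cells/well, 10 μM top final, 3-fold steps, ≤0.25% DMSO). Unmodified K562 served as baseline; four-parameter regression gave concentration reducing abundance to 50%.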

[8] = 24 h, decrease in CJ mRNA, A673 or K562 cells, 24 hours treatment, RT-qPCR, read-out: HTT CJ IC50
[9] = 24 h, A673 or K562 cells, 24 hours treatment, RT-qPCR
[10] = RT-qPCR panel, canonical junction mRNA, compound concentration having 50% response in CJ decrease, read-out: HTT IC50 (decrease in CJ mRNA levels)
[11] = 24 h, decrease in CJ mRNA, A673 or K562 cells, 24 hours treatment, RT-qPCR, read-out: MYB CJ IC50
[12] = RT-qPCR panel, canonical junction mRNA, compound concentration having 50% response in CJ decrease, read-out: MYB IC50 (decrease in CJ mRNA levels)

| Compound | IC50 [1, 8] [nM] | AC50 [1, 9] [nM] | IC50 [1, 10] [nM] | IC50 [2, 11] [nM] | AC50 [2, 9] [µM] | IC50 [2, 12] [nM] | IC50 [3] [nM] | IC50 [4] [µM] | IC50 [5] [nM] | IC50 [6] [nM] | IC50 [7] [nM] |
| --- | --- | --- | --- | --- | --- | --- | --- | --- | --- | --- | --- |
| c1nc2c(-c3cn[nH]c3)ccc(-c3ccc(N4CCC45CCNC5)nn3)c2s1 (stereo not drawn) [Compound 277] | > 10000 | > 10000 | > 10000 | > 10000 | > 10 | > 10000 | > 10000 | > 10 | 1000 to 10000 | > 10000 | 1000 to 10000 |
| c1cnn(-c2ccc(-c3ccc(N[C@@H]4C[C@H]5CC[C@@H](C4)N5)nn3)c3[nH]ncc23)c1 [Compound 278] |  | 100 to 1000 | < 100 | 100 to 1000 | 0.1 to 1 | 100 to 1000 | < 100 | 0.1 to 1 | 100 to 1000 | < 100 | < 100 |
| CN(c1ccc(-c2ccc(-c3ccn(C)c(=O)c3)c3ncsc23)nn1)C1CC(C)(C)NC(C)(C)C1 [Compound 279] | 1000 to 10000 | 1000 to 10000 | 1000 to 10000 | 1000 to 10000 | > 10 | 1000 to 10000 | 100 to 1000 | > 10 | 1000 to 10000 | 1000 to 10000 | 1000 to 10000 |
| COc1cc(-c2ccc(-c3ccc(N(C)C4CC(C)(C)NC(C)(C)C4)nn3)c3scnc23)ccn1 [Compound 280] | 100 to 1000 | 100 to 1000 | 100 to 1000 | 1000 to 10000 | 1 to 10 | 1000 to 10000 | 100 to 1000 | 1 to 10 | 100 to 1000 | < 100 | 100 to 1000 |
| CN(c1ccc(-c2ccc(-c3ccc(=O)n(C)c3)c3ncsc23)nn1)C1CC(C)(C)NC(C)(C)C1 [Compound 281] | > 10000 | > 10000 | > 10000 | 1000 to 10000 | > 10 | 1000 to 10000 | 100 to 1000 | > 10 | 1000 to 10000 | 1000 to 10000 | 1000 to 10000 |
| c1nc2c(-c3cn[nH]c3)ccc(-c3ccc(N(C4CCNCC4)C4CC4)nn3)c2s1 [Compound 283] | 1000 to 10000 | 1000 to 10000 | 1000 to 10000 | > 10000 | > 10 | > 10000 | 1000 to 10000 | 1 to 10 | 100 to 1000 | 1000 to 10000 | 1000 to 10000 |
| CC1(C)CC(N(c2ccc(-c3ccc(-c4cn[nH]c4)c4ncsc34)nn2)C2CC2)CC(C)(C)N1 [Compound 284] | 100 to 1000 | 100 to 1000 | 100 to 1000 | 100 to 1000 | > 10 | 100 to 1000 | 100 to 1000 | 1 to 10 | 100 to 1000 | 100 to 1000 | 1000 to 10000 |
| CN(C)[C@H]1[C@@H]2CN(c3ccc(-c4ccc(-c5cn[nH]c5)c5ncsc45)nn3)C[C@@H]21 [Compound 285] | > 10000 | 1000 to 10000 | > 10000 | > 10000 | > 10 | > 10000 | 100 to 1000 | > 10 | 1000 to 10000 | 1000 to 10000 | > 10000 |
| CN1CCC12CCN(c1ccc(-c3ccc(-c4cn[nH]c4)c4ncsc34)nn1)C2 (stereo not drawn) [Compound 287] | > 10000 | > 10000 | > 10000 | > 10000 | > 10 | > 10000 | 100 to 1000 | > 10 | 100 to 1000 | 1000 to 10000 | 1000 to 10000 |
| CN1CCCC2(CCN2c2ccc(-c3ccc(-c4cn[nH]c4)c4ncsc34)nn2)C1 (stereo not drawn) [Compound 288] | > 10000 | > 10000 | > 10000 | > 10000 | > 10 | > 10000 | 1000 to 10000 | > 10 | 100 to 1000 | 1000 to 10000 | 1000 to 10000 |
| CN1CCC2(CC1)CCN2c1ccc(-c2ccc(-c3cn[nH]c3)c3ncsc23)nn1 [Compound 289] | > 10000 | > 10000 | > 10000 | 1000 to 10000 | > 10 | 1000 to 10000 | > 10000 | > 10 | 100 to 1000 | 1000 to 10000 | > 10000 |
| [2H]C([2H])([2H])N(c1ccc(-c2ccc(-c3cn[nH]c3)c3cn[nH]c23)nn1)C1CC(C)(C)NC(C)(C)C1 [Compound 292] | 100 to 1000 | 100 to 1000 | 100 to 1000 | 100 to 1000 | 1 to 10 | 100 to 1000 | < 100 | 1 to 10 | 100 to 1000 | 100 to 1000 | 100 to 1000 |
| CCN(c1ccc(-c2ccc(-c3cn[nH]c3)c3cn[nH]c23)nn1)C1CC(C)(C)NC(C)(C)C1 [Compound 293] | 1000 to 10000 | 1000 to 10000 | 1000 to 10000 | 1000 to 10000 | > 10 | 1000 to 10000 | 100 to 1000 | > 10 | 1000 to 10000 | 1000 to 10000 | 1000 to 10000 |
| CN(c1ccc(-c2ccc(-c3cn[nH]c3)c3cn[nH]c23)nn1)[C@@H]1C[C@H]2CCC[C@@H](C1)N2 [Compound 295] |  | < 100 | < 100 | < 100 | 0.1 to 1 | < 100 | < 100 | < 0.1 | < 100 | < 100 | < 100 |
| [2H]C([2H])([2H])N(c1ccc(-c2ccc(-c3cn[nH]c3)c3cn[nH]c23)nn1)[C@@H]1C[C@H]2CCC[C@@H](C1)N2 [Compound 296] |  | < 100 | < 100 | 100 to 1000 | < 0.1 | 100 to 1000 | < 100 | < 0.1 | < 100 | < 100 | < 100 |
| CCN(c1ccc(-c2ccc(-c3cn[nH]c3)c3cn[nH]c23)nn1)[C@@H]1C[C@H]2CCC[C@@H](C1)N2 [Compound 297] | 100 to 1000 | 100 to 1000 | 100 to 1000 | 100 to 1000 | 0.1 to 1 | 100 to 1000 | < 100 | 0.1 to 1 | 100 to 1000 | 100 to 1000 | 100 to 1000 |
| CCN(c1ccc(-c2ccc(-c3cn[nH]c3)c3cn[nH]c23)nn1)[C@@H]1C[C@H]2CC[C@@H](C1)N2 [Compound 300] | 100 to 1000 | 100 to 1000 | 100 to 1000 | 1000 to 10000 | 0.1 to 1 | 1000 to 10000 | 100 to 1000 | 0.1 to 1 | 100 to 1000 | 100 to 1000 | 100 to 1000 |
| CN(c1ccc(-c2ccc(-c3cn[nH]c3)c3cn[nH]c23)nn1)[C@H]1[C@@H]2CNC[C@@H]21 [Compound 301] | > 10000 | > 10000 | > 10000 | > 10000 | > 10 | > 10000 | > 10000 | > 10 | 1000 to 10000 | > 10000 | > 10000 |
| CN1C[C@@H]2[C@H](C1)[C@H]2N(C)c1ccc(-c2ccc(-c3cn[nH]c3)c3cn[nH]c23)nn1 [Compound 302] | > 10000 | > 10000 | > 10000 | > 10000 | > 10 | > 10000 | > 10000 | > 10 | 1000 to 10000 | > 10000 | > 10000 |
| CN(C)[C@H]1[C@@H]2CN(c3ccc(-c4ccc(-c5cn[nH]c5)c5cn[nH]c45)nn3)C[C@@H]21 [Compound 303] | > 10000 | > 10000 | > 10000 | > 10000 | > 10 | > 10000 | 1000 to 10000 | > 10 | 1000 to 10000 | 1000 to 10000 | 1000 to 10000 |
| c1n[nH]cc1-c1ccc(-c2ccc(N3CC[C@@]45CCN[C@@H]4CC[C@@H]35)nn2)c2[nH]ncc12 [Compound 304] | > 10000 | > 10000 | > 10000 | > 10000 | > 10 | > 10000 | 1000 to 10000 | > 10 | 1000 to 10000 | 1000 to 10000 | > 10000 |
